According to patent US20230265151A1, “GIP/GLP1 CO-AGONIST COMPOUNDS” (priority 2020, published 2023):
Read-outs that look alike come from different tables or passages of the source. Each block holds one molecule with its values, some of them ahead of it. *1 amine or outer side, *2 acyl side, *3 side chain or, on linkers, in order; H or OH if unused. Where a SMILES comes first, the peptide text is derived from it. Side-chain parts run from the residue outwards. [ ]: non-standard residue; d: D form. The star is where a group is joined. αMePhe(2-F) = C[C@](N)(Cc1ccccc1F)C(=O)O; γGlu = O=C(O)[C@H](CCC(=O)[*:2])N[*:1]; C14 diacid = O=C(O)CCCCCCCCCCCCC(=O)*; αMeY = C[C@](N)(Cc1ccc(O)cc1)C(=O)O; 4Pal = N[C@@H](Cc1ccncc1)C(=O)O; αMeL = CC(C)C[C@](C)(N)C(=O)O; Orn = NCCC[C@H](N)C(=O)O; AEEA = NCCOCCOCC(=O)O; Aib = CC(C)(N)C(=O)O

Key:
Type in all cases: cell-based
hGCGR = molecular target: T1, hGCGR (Homo sapiens, UniProt P47871); experiment: Functional cAMP formation (HTRF) in HEK-293 clonal cells expressing hGCGR, 0.1% bovine casein, without or with 1.0% human serum albumin
T1 construct: expressed in transfected cells
Procedure, shortened: (§1)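 Cells were stimulated with peptide for 30 min at 37° C, then intracellular cAMP was measured by competitive HTRF (665/620 nm ratio) and converted to nM using a cAMP standard curve. Relative EC50 and Emax came from four-parameter logistic fits of percent maximal response against peptide concentration.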

hGIPR = molecular target: T2, hGIPR (Homo sapiens, UniProt P48546); experiment: Functional cAMP formation (HTRF) in HEK-293 clonal cells expressing hGIPR, 0.1% bovine casein, without or with 1.0% human serum albumin; conditions: for EC50: cAMP
T2 construct: expressed in transfected cells
T2 sequence (P48546 22-466): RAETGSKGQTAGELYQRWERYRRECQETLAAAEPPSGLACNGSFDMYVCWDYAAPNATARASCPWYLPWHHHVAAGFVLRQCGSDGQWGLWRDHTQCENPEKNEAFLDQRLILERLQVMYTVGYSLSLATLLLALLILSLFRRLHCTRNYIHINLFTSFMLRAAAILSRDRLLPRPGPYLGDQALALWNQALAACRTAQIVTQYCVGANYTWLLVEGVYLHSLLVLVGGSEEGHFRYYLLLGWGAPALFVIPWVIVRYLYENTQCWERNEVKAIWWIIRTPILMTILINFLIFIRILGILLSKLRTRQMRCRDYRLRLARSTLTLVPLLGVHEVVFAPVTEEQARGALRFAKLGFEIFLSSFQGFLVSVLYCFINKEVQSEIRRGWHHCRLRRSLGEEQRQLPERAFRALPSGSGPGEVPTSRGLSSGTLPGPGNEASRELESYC
Procedure, shortened: as §1

hGLP-1R = hGLP-1R (Homo sapiens, UniProt P43220); experiment: Functional cAMP formation (HTRF) in HEK-293 clonal cells expressing hGLP-1R, 0.1% bovine casein, without or with 1.0% human serum albumin; set-up: expressed in transfected cells; conditions: for EC50: cAMP
Procedure, shortened: as §1

[1] = hGCGR EC50, nM (SEM, n), cAMP, incubated at 37° C., 0.1% bovine casein (no human serum albumin), geometric mean

Chain of hGLP-1R (P43220 24-463): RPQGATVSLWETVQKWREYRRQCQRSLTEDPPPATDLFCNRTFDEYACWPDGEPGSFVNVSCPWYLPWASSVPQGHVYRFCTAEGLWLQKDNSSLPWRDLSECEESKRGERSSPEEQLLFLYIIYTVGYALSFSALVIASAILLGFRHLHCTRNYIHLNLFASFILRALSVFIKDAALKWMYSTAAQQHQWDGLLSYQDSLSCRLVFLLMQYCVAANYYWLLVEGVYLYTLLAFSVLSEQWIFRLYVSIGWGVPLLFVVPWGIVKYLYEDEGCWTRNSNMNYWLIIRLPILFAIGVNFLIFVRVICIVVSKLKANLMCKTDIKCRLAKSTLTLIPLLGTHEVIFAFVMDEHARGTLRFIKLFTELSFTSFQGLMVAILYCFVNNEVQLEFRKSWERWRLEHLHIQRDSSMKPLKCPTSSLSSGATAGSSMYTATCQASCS
T1 sequence (P47871 26-477): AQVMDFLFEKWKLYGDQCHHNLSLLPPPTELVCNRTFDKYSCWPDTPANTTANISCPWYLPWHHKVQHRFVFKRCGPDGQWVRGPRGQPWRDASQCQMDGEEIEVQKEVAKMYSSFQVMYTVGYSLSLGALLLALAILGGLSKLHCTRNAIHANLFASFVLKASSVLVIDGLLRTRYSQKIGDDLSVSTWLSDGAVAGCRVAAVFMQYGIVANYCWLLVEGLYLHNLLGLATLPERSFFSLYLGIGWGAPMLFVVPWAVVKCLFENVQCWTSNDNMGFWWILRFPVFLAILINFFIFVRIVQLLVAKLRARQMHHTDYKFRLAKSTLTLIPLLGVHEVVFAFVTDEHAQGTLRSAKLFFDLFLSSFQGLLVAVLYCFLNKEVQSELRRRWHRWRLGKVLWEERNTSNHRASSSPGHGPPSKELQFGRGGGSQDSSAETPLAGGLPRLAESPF

SMILES: CC[C@H](C)[C@H](NC(=O)[C@H](CC(C)C)NC(=O)[C@](C)(Cc1ccccc1)NC(=O)[C@H](CCCCNC(=O)COCCOCCNC(=O)COCCOCCNC(=O)CC[C@H](NC(=O)CCCCCCCCCCCCC(=O)O)C(=O)O)NC(=O)[C@@H](NC(=O)[C@](C)(Cc1ccccc1)NC(=O)[C@H](CCC(=O)O)NC(=O)C(C)(C)NC(=O)[C@H](CCC(N)=O)NC(=O)[C@H](C)NC(=O)[C@H](CCCCNC(=O)COCCOCCNC(=O)COCCOCCNC(=O)CC[C@H](NC(=O)CCCCCCCCCCCCC(=O)O)C(=O)O)NC(=O)[C@H](CCCN)NC(=O)[C@H](CC(=O)O)NC(=O)[C@H](CC(C)C)NC(=O)[C@](C)(CC(C)C)NC(=O)[C@@H](NC(=O)[C@H](CO)NC(=O)[C@H](Cc1ccncc1)NC(=O)[C@H](CC(=O)O)NC(=O)[C@H](CO)NC(=O)[C@@H](NC(=O)[C@](C)(Cc1ccccc1F)NC(=O)[C@@H](NC(=O)CNC(=O)[C@H](CCC(=O)O)NC(=O)C(C)(C)NC(=O)[C@@H](N)Cc1ccc(O)cc1)[C@@H](C)O)[C@@H](C)O)[C@@H](C)CC)[C@@H](C)CC)C(=O)N[C@@H](CCC(=O)O)C(=O)NCC(=O)NCC(=O)N1CCC[C@H]1C(=O)N[C@@H](CO)C(=O)N[C@@H](CO)C(=O)NCC(=O)N[C@@H](C)C(=O)N1CCC[C@H]1C(=O)N1CCC[C@H]1C(=O)N1CCC[C@H]1C(=O)N[C@@H](CO)C(N)=O [Example 84]
EC50 (hGCGR; [1]): > 9950 nM
Emax (hGIPR; HEK293, read-out: hGIPR Emax, % ± SEM, percent of maximal response to GIP(1-42)NH2, 37° C., 0.1% bovine casein, arithmetic mean): 98.5%
Emax (hGLP-1R; HEK293, read-out: hGLP-1R Emax, % ± SEM, percent of maximal response to GLP-1(7-36)NH2, 37° C., 0.1% bovine casein, arithmetic mean): 94%

EC50 (hGCGR; cAMP, incubated at 37° C., 0.1% bovine casein (no human serum albumin), geometric mean, read-out: hGCGR EC50, nM (SEM, n)): > 9950 nM
Emax (hGIPR; HEK293, percent of maximal response to GIP(1-42)NH2, 37° C., 0.1% bovine casein, arithmetic mean, read-out: hGIPR Emax, % ± SEM): 96.6 ± 4.38%
EC50 (hGIPR; incubated at 37° C., 0.1% bovine casein (no human serum albumin), geometric mean, read-out: hGIPR EC50, nM (SEM, n)): 0.0202 nM
Emax (hGLP-1R; HEK293, percent of maximal response to GLP-1(7-36)NH2, 37° C., 0.1% bovine casein, arithmetic mean, read-out: hGLP-1R Emax, % ± SEM): 100 ± 3.68%
EC50 (hGLP-1R; incubated at 37° C., 0.1% bovine casein (no human serum albumin), geometric mean, read-out: hGLP-1R EC50, nM (SEM, n)): 0.28 nM
SMILES: CC[C@H](C)[C@H](NC(=O)[C@H](CC(C)C)NC(=O)[C@](C)(Cc1ccc(O)cc1)NC(=O)[C@H](CCCCNC(=O)COCCOCCNC(=O)COCCOCCNC(=O)CC[C@H](NC(=O)CCCCCCCCCCCCC(=O)O)C(=O)O)NC(=O)[C@@H](NC(=O)[C@H](Cc1ccccc1)NC(=O)[C@H](CCC(=O)O)NC(=O)C(C)(C)NC(=O)[C@H](CCC(N)=O)NC(=O)[C@H](C)NC(=O)[C@H](CCCCNC(=O)COCCOCCNC(=O)COCCOCCNC(=O)CC[C@H](NC(=O)CCCCCCCCCCCCC(=O)O)C(=O)O)NC(=O)[C@H](CCCN)NC(=O)[C@H](CC(=O)O)NC(=O)[C@H](CC(C)C)NC(=O)[C@](C)(CC(C)C)NC(=O)[C@@H](NC(=O)[C@H](CO)NC(=O)[C@H](Cc1ccncc1)NC(=O)[C@H](CC(=O)O)NC(=O)[C@H](CO)NC(=O)[C@@H](NC(=O)[C@](C)(Cc1ccccc1F)NC(=O)[C@@H](NC(=O)CNC(=O)[C@H](CCC(=O)O)NC(=O)C(C)(C)NC(=O)[C@@H](N)Cc1ccc(O)cc1)[C@@H](C)O)[C@@H](C)O)[C@@H](C)CC)[C@@H](C)CC)C(=O)N[C@@H](CCC(=O)O)C(=O)NCC(=O)NCC(N)=O [Example 189] (H-Y[Aib]EGT[αMePhe(2-F)]TSD[4Pal]SI[αMeL]LD[Orn]K([AEEA-AEEA-γGlu-C14 diacid])AQ[Aib]EFIK([AEEA-AEEA-γGlu-C14 diacid])[αMeY]LIEGG-NH2; N-terminus assumed)

SMILES: CCCCCCCCCCCC(=O)N[C@@H](CCC(=O)NCCOCCOCC(=O)NCCOCCOCC(=O)NCCCC[C@H](NC(=O)[C@H](CCCN)NC(=O)[C@H](CC(=O)O)NC(=O)[C@H](CC(C)C)NC(=O)[C@](C)(CC(C)C)NC(=O)[C@@H](NC(=O)[C@H](CO)NC(=O)[C@H](CCc1ccc(O)cc1)NC(=O)[C@H](CC(=O)O)NC(=O)[C@H](CO)NC(=O)[C@@H](NC(=O)[C@](C)(Cc1ccccc1F)NC(=O)[C@@H](NC(=O)CNC(=O)[C@H](CCC(=O)O)NC(=O)C(C)(C)NC(=O)[C@@H](N)Cc1ccc(O)cc1)[C@@H](C)O)[C@@H](C)O)[C@@H](C)CC)C(=O)N[C@@H](C)C(=O)N[C@@H](CCC(N)=O)C(=O)NC(C)(C)C(=O)N[C@@H](CCC(=O)O)C(=O)N[C@@H](Cc1ccccc1)C(=O)N[C@H](C(=O)N[C@H](CCC(=O)O)C(=O)N[C@@](C)(Cc1ccc(O)cc1)C(=O)N[C@@H](CC(C)C)C(=O)N[C@H](C(=O)N[C@@H](CCCCNC(=O)COCCOCCNC(=O)COCCOCCNC(=O)CC[C@H](NC(=O)CCCCCCCCCCC)C(=O)O)C(=O)NCC(=O)NCC(=O)N1CCC[C@H]1C(=O)N[C@@H](CO)C(=O)N[C@@H](CO)C(=O)NCC(=O)N[C@@H](C)C(=O)N1CCC[C@H]1C(=O)N1CCC[C@H]1C(=O)N1CCC[C@H]1C(=O)N[C@@H](CO)C(N)=O)[C@@H](C)CC)[C@@H](C)CC)C(=O)O [Example 335]
EC50 (hGCGR; cAMP, 37° C., 0.1% bovine casein (no human serum albumin), geometric mean, read-out: hGCGR EC50, nM (SEM, n)): > 9950 nM
EC50 (hGCGR; cAMP, 37° C., 0.1% bovine casein and 1.0% human serum albumin, geometric mean (SEM, n), read-out: hGCGR EC50, nM (SEM, n)): > 9950 nM
Emax (hGIPR; HEK293, cAMP, 37° C., 0.1% bovine casein and 1.0% human serum albumin, percent of maximal response to GIP(1-42)NH2, read-out: hGIPR Emax, % ± SEM): 85.2%
EC50 (hGIPR; 37° C., 0.1% bovine casein and 1.0% human serum albumin, geometric mean (SEM, n), read-out: hGIPR EC50, nM (SEM, n)): 1.04 nM
Emax (hGLP-1R; HEK293, cAMP, 37° C., 0.1% bovine casein, percent of maximal response to GLP-1(7-36)NH2, arithmetic mean, read-out: hGLP-1R Emax, % ± SEM): 113%
EC50 (hGLP-1R; 37° C., 0.1% bovine casein (no human serum albumin), geometric mean, read-out: hGLP-1R EC50, nM (SEM, n)): 0.175 nM
EC50 (hGLP-1R; 37° C., 0.1% bovine casein and 1.0% human serum albumin, geometric mean (SEM, n), read-out: hGLP-1R EC50, nM (SEM, n)): 12.3 nM

SMILES: CC[C@H](C)[C@H](NC(=O)[C@H](CC(C)C)NC(=O)[C@](C)(Cc1ccc(O)cc1)NC(=O)[C@@H](CCC(=O)O)NC(=O)[C@@H](NC(=O)[C@H](Cc1ccccc1)NC(=O)[C@H](CCC(=O)O)NC(=O)C(C)(C)NC(=O)[C@H](CCC(N)=O)NC(=O)[C@H](C)NC(=O)[C@H](CCCCNC(=O)COCCOCCNC(=O)COCCOCCNC(=O)CC[C@H](NC(=O)CCCCCCCCCOc1ccc(C(=O)O)cc1)C(=O)O)NC(=O)[C@H](CCCN)NC(=O)[C@H](CC(=O)O)NC(=O)[C@H](CC(C)C)NC(=O)[C@](C)(CC(C)C)NC(=O)[C@@H](NC(=O)C(C)(C)NC(=O)[C@H](Cc1ccc(O)cc1)NC(=O)[C@H](CC(=O)O)NC(=O)[C@H](CO)NC(=O)[C@@H](NC(=O)[C@](C)(Cc1ccccc1F)NC(=O)[C@@H](NC(=O)CNC(=O)[C@H](CCC(=O)O)NC(=O)C(C)(C)NC(=O)[C@@H](N)Cc1ccc(O)cc1)[C@@H](C)O)[C@@H](C)O)[C@@H](C)CC)[C@@H](C)CC)C(=O)N[C@@H](CCCCNC(=O)COCCOCCNC(=O)COCCOCCNC(=O)CC[C@H](NC(=O)CCCCCCCCCOc1ccc(C(=O)O)cc1)C(=O)O)C(=O)NCC(=O)NCC(=O)N1CCC[C@H]1C(=O)N[C@@H](CO)C(=O)N[C@@H](CO)C(=O)NCC(=O)N[C@@H](C)C(=O)N1CCC[C@H]1C(=O)N1CCC[C@H]1C(=O)N1CCC[C@H]1C(=O)N[C@@H](CO)C(N)=O [Example 237]
EC50 (hGCGR; hGCGR EC50, nM (SEM, n), 0.1% bovine casein and 1.0% human serum albumin, 37° C., geometric mean): > 9950 nM
EC50 (hGCGR; [1]): > 9950 nM
Emax (hGIPR; HEK293, read-out: hGIPR Emax, % ± SEM, 0.1% bovine casein and 1.0% human serum albumin, 37° C., percent of maximal response to GIP(1-42)NH2): 93.1%
EC50 (hGIPR; hGIPR EC50, nM (SEM, n), incubated at 37° C., 0.1% bovine casein (no human serum albumin), geometric mean): 0.0186 nM
Emax (hGLP-1R; HEK293, read-out: hGLP-1R Emax, % ± SEM, 0.1% bovine casein and 1.0% human serum albumin, 37° C., percent of maximal response to GLP-1(7-36)NH2): 113%
EC50 (hGLP-1R; hGLP-1R EC50, nM (SEM, n), incubated at 37° C., 0.1% bovine casein (no human serum albumin), geometric mean): 0.633 nM
